Consider four compounds from US20170202840A1, “TREATMENT OF PANCREATIC CANCER WITH LIPOSOMAL IRINOTECAN” (MERRIMACK PHARMACEUTICALS, INC., priority 2016, published 2017).

Where a name gives a salt, the structure may show the parent alone. Read-outs that look alike come from different tables or passages of the source.

The test system of series [1] is cytochrome P-450 isozymes. Particulars: in vitro; cited from earlier work.
For series [2] the following is noted: rats, cited from earlier work.
The conditions of series [3]: rabbits, 6 mg/kg/day; cited from earlier work.
The conditions of series [4]: cited from earlier work.
For series [5] the following is noted: intravenous; cited from earlier work.
For series [6] the following is noted: mouse; cited from earlier work.
For series [7] the following is noted: intravenous; cited from earlier work. The source holds these as a separate data set.
The conditions of series [8]: human, in vivo; cited from earlier work.
The conditions of series [9]: rat, in vivo; cited from earlier work.
The conditions of series [10]: in vivo.
Text: Serum bilirubin within the institutional normal range, albumin≧3 g/dL, and Karnofsky Performance Status (KPS)≧70 were required for study entry.
TEAEs were graded by NCI CTCAE v4.0 and coded by MedDRA v14.1 for the following prespecified subgroups: sex, age (<65 vs ≧65 years), ethnicity (white vs Asian), UGT1A1*28 status, prior conventional irinotecan therapy (yes vs no), and prior 5-FU therapy (yes vs no). All TEAEs were followed until resolution or patient discontinuation. Analyses were performed on the safety population (ie, those who received≧1 dose of study medication).
All TEAEs were followed until resolution or patient discontinuation. The safety analysis population included all patients who received≧1 dose of study drug. The presence of the UGT1A1*28 allele was determined by genotype testing, and homozygous patients were identified (A7/TA7 genotype)
The conditions of series [11]: dog, in vivo.

For the compound `CCc1c2c(nc3ccc(O)cc13)-c1cc3c(c(=O)n1C2)COC(=O)[C@]3(O)CC` [SN-38], in [1], the “Inhibition of cytochrome P-450 isozymes” value is “do not inhibit cytochrome P-450 isozymes”.
Consider `CCc1c2c(nc3ccc(OC(=O)N4CCC(N5CCCCC5)CC4)cc13)-c1cc3c(c(=O)n1C2)COC(=O)[C@]3(O)CC` [irinotecan, (5) 4,11-diethyl-3,4,12,14-tetrahydro-4-hydroxy-3,14-dioxo1H-pyrano[3′,4′: 6,7]-indolizino[1,2b]quinolin-9-yl-[1,4′bipiperidine]-1′-carboxylate], for which the “Embryo-fetal effects, intravenous during organogenesis” value is “increased post-implantation loss and decreased numbers of live fetuses” in series [2] (6 mg/kg/day); “increased post-implantation loss and decreased numbers of live fetuses” in series [3]. Besides, the Placental transfer entry in [2] (intravenous) was “crosses the placenta”. Further, the “Incidence of grade 4 neutropenia” value was not above 50% in series [4] (350 mg/m2 once every-3-weeks, homozygous UGT1A1*28); 12.5% in series [4] (heterozygous (UGT1A1 6/7 genotype)); “no grade 4 neutropenia was observed” in [4] (homozygous wild-type (UGT1A1 6/6 genotype)). Also, in series [1], the “Inhibition of cytochrome P-450 isozymes” value is given as “do not inhibit cytochrome P-450 isozymes”.
As for `CCc1c2c(nc3ccc(OC(=O)N4CCC(N5CCCCC5)CC4)cc13)-c1cc3c(c(=O)n1C2)COC(=O)[C@]3(O)CC` [irinotecan HCl, (5) 4,11-diethyl-3,4,12,14-tetrahydro-4-hydroxy-3,14-dioxo1H-pyrano[3′,4′:6,7]-indolizino[1,2 b]quinolin-9-yl-[1,4′bipiperidine]-1′-carboxylate, monohydrochloride, trihydrate], the “Time to appearance of radioactivity in milk” value in [5] was not above 5 min. For the same compound, the “Effects in offspring, dams dosed after organogenesis through weaning” value in [2] (6 mg/kg/day) is “decreased learning ability and decreased female body weights in the offspring”. Besides, in [2], the “Doses giving structural abnormalities and growth delays” value was “greater than 1.2 mg/kg/day”. Moreover, in series [6], the Clastogenicity in vivo result was “clastogenic”. Further, the “Doses without significant adverse effects on fertility and general reproductive performance” value in series [7] is on record as “up to 6 mg/kg/day”. Also, in series [8], the “Effect of dexamethasone (moderate CYP3A4 inducer) on pharmacokinetics of irinotecan” value is on record as “does not alter the pharmacokinetics of irinotecan”; the “Exposure to irinotecan and SN-38 with concomitant ketoconazole” value is on record as “increased exposure”; the “Exposure to irinotecan or SN-38 with CYP3A4 enzyme-inducing anticonvulsants or St. John's wort” value is on record as “substantially reduced”; the “Urinary excretion of SN-38” value is given as less than 1%. Also, the “Urinary excretion of SN-38 glucuronide” value in series [8] is 3%. Moreover, the Carcinogenicity finding result in [9] is “significant linear trend between irinotecan HCl dosage and the incidence of combined uterine horn endometrial stromal polyps and endometrial stromal sarcomas”.
“irinotecan sucrose octasulfate salt liposome injection [MM-398]”: the “Incidence of neutropenic sepsis” value in series [10] is 0.8%. For the same compound, the “Doses with atrophy of male and female reproductive organs” value in series [11] is reported as not below 13 mg/kg.
